Assay results published in ChEMBL document CHEMBL3885861, “Open TG-GATES”.

Organism: Rattus norvegicus
Assay: Open TG-GATES - Regimen: Single
Assay type: toxicity, organism-based, Sprague-Dawley
Parameters: regimen Single, gender Male, age 6 weeks
Settings: in vivo, po, 20 mg/kg, route gavage, dose level High; for KIDNEY_L / KIDNEY_R / KIDNEY_TOTAL: tissue Kidney; for LIVER: tissue Liver; for ALP / ALT / AST / BUN / CRE / Ca / Cl / DBIL / GLC / IP / K / LDH / Na / PL / RALB / TBIL / TC / TG / TP / gamma-GTP: tissue Plasma

OCCN1CCN(CCCN2c3ccccc3Sc3ccc(C(F)(F)F)cc32)CC1 [FLUPHENAZINE]
TERMINAL_BW (3 h): 197.6 g | APTT (3 h, tissue Blood): 16.7 s | Bas (3 h, tissue Blood): 0% | Eos (3 h, tissue Blood): 0.8% | Fbg (3 h, tissue Blood): 205.4 mg/dL | Hb (3 h, tissue Blood): 12.9 g/dL | Lym (3 h, tissue Blood): 81.6% | MCH (3 h, tissue Blood): 21.4 pg | MCHC (3 h, tissue Blood): 33% | MCV (3 h, tissue Blood): 64.9 fL | Mono (3 h, tissue Blood): 4.4% | Neu (3 h, tissue Blood): 13.6% | PT (3 h, tissue Blood): 12.7 s | Plat (3 h, tissue Blood): 111.6 x10_4/uL | RBC (3 h, tissue Blood): 600.6 x10_4/ul | Ret (3 h, tissue Blood): 9.2% | WBC (3 h, tissue Blood): 64.5 x10_2/uL | KIDNEY_L (3 h): 0.9 g | KIDNEY_R (3 h): 0.9 g | KIDNEY_TOTAL (3 h): 1.8 g | LIVER (3 h): 9.2 g | ALP (3 h): 781.6 IU/L | ALT (3 h): 29.4 IU/L | AST (3 h): 58 IU/L | BUN (3 h): 10 mg/dL | CRE (3 h): 0.5 mg/dL | Ca (3 h): 10.7 mg/dL | Cl (3 h): 107.4 meq/L | DBIL (3 h): 0.006 mg/dL | GLC (3 h): 225.6 mg/dL | IP (3 h): 10.6 mg/dL | K (3 h): 4.3 meq/L | LDH (3 h): 145.2 IU/L | Na (3 h): 139 meq/L | PL (3 h): 132 mg/dL | RALB (3 h): 3.7 g/dL | TBIL (3 h): 0.3 mg/dL | TC (3 h): 74.6 mg/dL | TG (3 h): 33.8 mg/dL | TP (3 h): 5.3 g/dL | gamma-GTP (3 h): 1.6 IU/L | TERMINAL_BW (6 h): 194.7 g | APTT (6 h, tissue Blood): 16.3 s | Bas (6 h, tissue Blood): 0% | Eos (6 h, tissue Blood): 0.4% | Fbg (6 h, tissue Blood): 205.8 mg/dL | Hb (6 h, tissue Blood): 12.8 g/dL | Lym (6 h, tissue Blood): 79% | MCH (6 h, tissue Blood): 21.9 pg | MCHC (6 h, tissue Blood): 32.9% | MCV (6 h, tissue Blood): 66.4 fL | Mono (6 h, tissue Blood): 6.4% | Neu (6 h, tissue Blood): 14.6% | PT (6 h, tissue Blood): 12.3 s | Plat (6 h, tissue Blood): 100.1 x10_4/uL | RBC (6 h, tissue Blood): 587.4 x10_4/ul | Ret (6 h, tissue Blood): 7.7% | WBC (6 h, tissue Blood): 59.6 x10_2/uL | KIDNEY_L (6 h): 0.9 g | KIDNEY_R (6 h): 0.9 g | KIDNEY_TOTAL (6 h): 1.8 g | LIVER (6 h): 8.8 g | ALP (6 h): 839.8 IU/L | ALT (6 h): 32 IU/L | AST (6 h): 60.2 IU/L | BUN (6 h): 10.6 mg/dL | CRE (6 h): 0.5 mg/dL | Ca (6 h): 10 mg/dL | Cl (6 h): 107.4 meq/L | DBIL (6 h): 0.018 mg/dL | GLC (6 h): 215.2 mg/dL | IP (6 h): 9.9 mg/dL | K (6 h): 4.3 meq/L | LDH (6 h): 171.6 IU/L | Na (6 h): 138 meq/L | PL (6 h): 125.6 mg/dL | RALB (6 h): 3.5 g/dL | TBIL (6 h): 0.4 mg/dL | TC (6 h): 76 mg/dL | TG (6 h): 16.6 mg/dL | TP (6 h): 5.3 g/dL | gamma-GTP (6 h): 1.2 IU/L | TERMINAL_BW (9 h): 190.3 g | APTT (9 h, tissue Blood): 16.3 s | Bas (9 h, tissue Blood): 0% | Eos (9 h, tissue Blood): 0.2% | Fbg (9 h, tissue Blood): 214.8 mg/dL | Hb (9 h, tissue Blood): 12.7 g/dL | Lym (9 h, tissue Blood): 76.8% | MCH (9 h, tissue Blood): 21.3 pg | MCHC (9 h, tissue Blood): 33.1% | MCV (9 h, tissue Blood): 64.4 fL | Mono (9 h, tissue Blood): 6% | Neu (9 h, tissue Blood): 16.4% | PT (9 h, tissue Blood): 12.3 s | Plat (9 h, tissue Blood): 113.7 x10_4/uL | RBC (9 h, tissue Blood): 594 x10_4/ul | Ret (9 h, tissue Blood): 8.4% | WBC (9 h, tissue Blood): 72.7 x10_2/uL | KIDNEY_L (9 h): 0.9 g | KIDNEY_R (9 h): 0.9 g | KIDNEY_TOTAL (9 h): 1.8 g | LIVER (9 h): 7.8 g | ALP (9 h): 741.8 IU/L | ALT (9 h): 28.8 IU/L | AST (9 h): 56 IU/L | BUN (9 h): 9.6 mg/dL | CRE (9 h): 0.5 mg/dL | Ca (9 h): 10 mg/dL | Cl (9 h): 107 meq/L | DBIL (9 h): 0.03 mg/dL | GLC (9 h): 197 mg/dL | IP (9 h): 9.6 mg/dL | K (9 h): 4.2 meq/L | LDH (9 h): 157.8 IU/L | Na (9 h): 139.2 meq/L | PL (9 h): 135 mg/dL | RALB (9 h): 3.7 g/dL | TBIL (9 h): 0.3 mg/dL | TC (9 h): 89 mg/dL | TG (9 h): 11.2 mg/dL | TP (9 h): 5.3 g/dL | gamma-GTP (9 h): 1.2 IU/L | TERMINAL_BW (24 h): 176 g | APTT (24 h, tissue Blood): 16.6 s | Bas (24 h, tissue Blood): 0% | Eos (24 h, tissue Blood): 0.2% | Fbg (24 h, tissue Blood): 206.6 mg/dL | Hb (24 h, tissue Blood): 14.7 g/dL | Ht (24 h, tissue Blood): 44.3% | Lym (24 h, tissue Blood): 81.2% | MCH (24 h, tissue Blood): 21.5 pg | MCHC (24 h, tissue Blood): 33.2% | MCV (24 h, tissue Blood): 64.8 fL | Mono (24 h, tissue Blood): 7.6% | Neu (24 h, tissue Blood): 10.6% | PT (24 h, tissue Blood): 12.2 s | Plat (24 h, tissue Blood): 125.2 x10_4/uL | RBC (24 h, tissue Blood): 684 x10_4/ul | Ret (24 h, tissue Blood): 6.6% | WBC (24 h, tissue Blood): 78.6 x10_2/uL | KIDNEY_L (24 h): 0.9 g | KIDNEY_R (24 h): 0.9 g | KIDNEY_TOTAL (24 h): 1.8 g | LIVER (24 h): 7.5 g | ALP (24 h): 847.4 IU/L | ALT (24 h): 27.8 IU/L | AST (24 h): 69.6 IU/L | BUN (24 h): 23.8 mg/dL | CRE (24 h): 0.5 mg/dL | Ca (24 h): 10.5 mg/dL | Cl (24 h): 105.4 meq/L | DBIL (24 h): 0.012 mg/dL | GLC (24 h): 176 mg/dL | IP (24 h): 9 mg/dL | K (24 h): 4.9 meq/L | LDH (24 h): 171.6 IU/L | Na (24 h): 138.6 meq/L | PL (24 h): 138.8 mg/dL | RALB (24 h): 4.3 g/dL | TBIL (24 h): 0.3 mg/dL | TC (24 h): 87.6 mg/dL | TG (24 h): 44.6 mg/dL | TP (24 h): 6.1 g/dL | gamma-GTP (24 h): 1.2 IU/L
